Test results: patent publication US20230026869A1, “CRYSTAL FORM OF NUCLEOPROTEIN INHIBITOR AND USE THEREOF” (CHIA TAI TIANQING PHARMACEUTICAL GROUP CO., LTD., priority 2019, published 2023)

Legend:
HBV = assay: qPCR assay for in vitro testing of HBV (HBV DNA content in HepG2.2.15 cells); type: cell-based; details: Hepatitis B virus, 192 h, HBV DNA by qPCR, day 8, read-out: Concentration for 50% of maximal effect (EC50) of HBV
Description: HBV DNA content in HepG2.2.15 cells was detected by a real time-qPCR assay, and the inhibitory action of the compound on HBV was evaluated by taking the EC50 value of the compound as an index.
2.1. cell lines: HepG2.2.15 cells
3.1. HepG2.2.15 cells (4×10^4 cells/well) were plated in a 96-well plate and cultured overnight at 37° C. and 5% CO2.
3.2. On the next day, the compound was diluted for a total of 8 concentrations, with 3-fold gradient dilutions. The compound at different concentrations was added into the culture wells in duplicate. The final concentration of DMSO in the culture medium was 1%. 1 μM GLS4 served as 100% inhibition control (WO2008154817A1 discloses the structure of GLS4 as follows:
DMSO at 1% served as 0% inhibition control.
3.3. On the fifth day, the original culture medium was replaced with a fresh culture medium containing the compound.
3.4. On the eighth day, the culture medium in the culture wells was collected, and the high-throughput DNA purification kit (Qiagen-51162) was used to extract DNA. For specific steps, refer to the product manual.
3.6. 15 μL of the reaction mixture was added into each well of the 96-well PCR plate, and then 10 μL of sample DNA or HBV DNA standard was added into each well.
3.7. Reaction conditions for PCR were as follows: heating at 95° C. for 10 min; then denaturating at 95° C. for 15 s and extending at 60° C. for 1 min for 40 cycles.
3.8.1. […]

CYP2C19 = biological target: T1, CYP2C19 (Homo sapiens, UniProt P33261); assay: Inhibition of human liver microsomal cytochrome P450 isoenzyme CYP2C19; type: in vitro ADME; details: human liver microsomes
T1 construct: from tissue; host or cells: human liver microsomes
Description: Objective: The inhibitory effect of the test compound on the activity of human liver microsomal cytochrome P450 isoenzymes (CYP1A2, CYP2C9, CYP2C19, CYP2D6 and CYP3A4) was determined. […]

[1] = Metabolic stability in liver microsomes of cynomolgus monkeys; type: in vitro ADME; details: cynomolgus monkey
Description: Objective: The metabolic stability of the tested compound of formula (I) in liver microsomes of rats, beagle dogs and cynomolgus monkeys was determined. […]

[2] = Metabolic stability in CD-1 mice liver microsomes; type: in vitro ADME
Description: Objective: The metabolic stability of the test compound in CD-1 mice and human liver microsomes was determined. […]

T1 sequence (P33261 whole entry): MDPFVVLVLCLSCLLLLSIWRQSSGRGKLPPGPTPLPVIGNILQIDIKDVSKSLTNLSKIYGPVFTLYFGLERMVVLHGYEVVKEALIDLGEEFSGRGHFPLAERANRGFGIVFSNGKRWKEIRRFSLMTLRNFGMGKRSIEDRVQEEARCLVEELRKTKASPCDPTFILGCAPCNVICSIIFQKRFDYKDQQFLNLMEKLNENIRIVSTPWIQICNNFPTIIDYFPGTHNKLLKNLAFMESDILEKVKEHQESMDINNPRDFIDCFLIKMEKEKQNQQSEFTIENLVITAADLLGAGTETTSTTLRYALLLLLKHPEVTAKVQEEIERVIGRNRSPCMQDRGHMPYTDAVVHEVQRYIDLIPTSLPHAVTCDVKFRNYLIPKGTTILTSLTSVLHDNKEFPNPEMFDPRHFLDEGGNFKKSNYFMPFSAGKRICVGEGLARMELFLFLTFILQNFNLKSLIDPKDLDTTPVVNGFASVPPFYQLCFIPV

CC1(NC(=O)C(=O)c2c(Cl)c(C(=O)Nc3cc(F)c(F)c(F)c3)c3n2CCC3)CCC(CC(=O)O)CC1 (centres unmarked) [Compound of formula (I)]
EC50 (HBV): 4 nM
IC50 (CYP2C19): > 50000 nM
microsomal CLint at 1 μM ([1]; microsomes): < 9.6 µL/min/mg
CLint scaled at 1 μM ([1]; Cynomolgus monkeys liver microsomes): < 13 mL/min/kg
half-life at 1 μM ([1]; Cynomolgus monkeys liver microsomes, 1 μM compound, 0.5 mg/mL): > 2.42 h
microsomal CLint at 1 μM ([2]; CD-1, mouse, microsomes): < 9.6 µL/min/mg
CLint scaled at 1 μM ([2]; mouse, CD-1 mice liver microsomes): < 38 mL/min/kg
half-life at 1 μM ([2]; mouse, CD-1 mice liver microsomes, 1 μM compound, 0.5 mg/mL): > 2.42 h
